Columns and labels:
human recombinant HDAC1 = target: T1, human recombinant HDAC1 (Homo sapiens, UniProt Q13547); experiment: HDAC1 enzyme activity inhibition assay (in vitro, fluorimetric); assay type: biochemical; conditions: human recombinant HDAC1, fluorimetric kit, 30° C. 60 minutes
T1 construct: purchased Enzo Life Science BML-SE456
How it was run: (§1)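 IC50 values derive from fluorescence (Ex 360, Em 460) after developer treatment (30 min) of reactions of recombinant human HDAC1 or HDAC6 with 10 μM Fluor de Lys-SIRT1 substrate (60 min, 30 °C). Compounds were serially diluted 5-fold; 0.3 μg enzyme was used for HDAC1, with HDAC6 tested identically.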

human recombinant HDAC6 = target: T2, human recombinant HDAC6 (Homo sapiens, UniProt Q9UBN7); experiment: HDAC6 enzyme activity inhibition assay (in vitro, fluorimetric); assay type: biochemical; conditions: for HDAC6 selectivity (fold): HDAC6 selectivity over HDAC1; for IC50: human recombinant HDAC6, fluorimetric kit, same protocol as HDAC1
T2 construct: purchased Calbiochem 382180
T2 sequence (Q9UBN7 1-1215): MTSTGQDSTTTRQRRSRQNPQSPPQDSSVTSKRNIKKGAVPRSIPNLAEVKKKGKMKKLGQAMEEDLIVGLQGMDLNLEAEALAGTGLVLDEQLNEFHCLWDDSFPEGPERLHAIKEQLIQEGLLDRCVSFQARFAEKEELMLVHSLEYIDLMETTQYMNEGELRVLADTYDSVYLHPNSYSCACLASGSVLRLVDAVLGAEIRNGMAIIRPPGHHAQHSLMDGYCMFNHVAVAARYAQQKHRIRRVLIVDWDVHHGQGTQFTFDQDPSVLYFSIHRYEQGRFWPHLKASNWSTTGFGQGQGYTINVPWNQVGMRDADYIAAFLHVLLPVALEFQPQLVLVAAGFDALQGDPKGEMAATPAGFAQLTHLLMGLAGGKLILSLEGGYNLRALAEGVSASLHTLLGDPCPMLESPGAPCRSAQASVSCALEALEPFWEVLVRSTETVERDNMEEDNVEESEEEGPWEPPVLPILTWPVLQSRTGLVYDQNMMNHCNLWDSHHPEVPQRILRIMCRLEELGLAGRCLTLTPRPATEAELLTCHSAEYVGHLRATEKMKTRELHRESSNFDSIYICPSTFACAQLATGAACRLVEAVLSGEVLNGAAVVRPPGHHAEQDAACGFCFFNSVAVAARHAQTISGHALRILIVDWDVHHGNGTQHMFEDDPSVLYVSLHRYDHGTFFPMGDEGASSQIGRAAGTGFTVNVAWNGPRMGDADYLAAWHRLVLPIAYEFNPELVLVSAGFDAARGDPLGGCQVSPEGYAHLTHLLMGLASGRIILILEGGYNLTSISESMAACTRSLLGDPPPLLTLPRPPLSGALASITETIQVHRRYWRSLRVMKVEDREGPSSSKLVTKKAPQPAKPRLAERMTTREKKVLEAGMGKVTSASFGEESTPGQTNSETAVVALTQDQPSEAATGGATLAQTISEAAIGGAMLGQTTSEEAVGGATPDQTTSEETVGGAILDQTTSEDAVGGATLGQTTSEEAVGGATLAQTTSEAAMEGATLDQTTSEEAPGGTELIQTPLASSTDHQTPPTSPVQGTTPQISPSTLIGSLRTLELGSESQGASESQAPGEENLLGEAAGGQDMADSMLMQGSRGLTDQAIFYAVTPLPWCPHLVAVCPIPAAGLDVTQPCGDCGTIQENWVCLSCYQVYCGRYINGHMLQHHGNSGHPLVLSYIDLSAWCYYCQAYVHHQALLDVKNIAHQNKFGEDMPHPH
How it was run: as §1

T1 sequence (Q13547 whole entry): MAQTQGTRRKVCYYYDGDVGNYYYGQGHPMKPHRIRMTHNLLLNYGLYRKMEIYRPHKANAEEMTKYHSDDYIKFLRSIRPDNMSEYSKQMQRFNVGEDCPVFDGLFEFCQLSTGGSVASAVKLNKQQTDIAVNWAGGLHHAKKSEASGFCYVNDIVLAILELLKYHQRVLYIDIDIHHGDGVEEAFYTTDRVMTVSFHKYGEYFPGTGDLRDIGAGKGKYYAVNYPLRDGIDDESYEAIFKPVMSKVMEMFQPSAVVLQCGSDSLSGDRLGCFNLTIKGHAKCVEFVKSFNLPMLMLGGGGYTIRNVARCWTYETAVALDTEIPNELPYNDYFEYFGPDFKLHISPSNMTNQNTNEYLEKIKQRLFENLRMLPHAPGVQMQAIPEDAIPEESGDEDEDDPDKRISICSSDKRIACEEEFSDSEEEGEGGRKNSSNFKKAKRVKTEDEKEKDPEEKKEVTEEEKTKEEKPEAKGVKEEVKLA

Row | Compound | IC50 (human recombinant HDAC1) [µM] | HDAC6 selectivity (fold) (human recombinant HDAC6) | IC50 (human recombinant HDAC6) [µM]
1 | CCN(CC)C[C@@H](C)NCc1cccc(CN2[C@H](C)CN(Cc3ccc(C(=O)NO)cc3)C[C@@H]2C)c1 [Compound 455, 4-(((3R,5S)-4-(3-(((1-(diethylamino)propan-2-yl)amino)methyl)benzyl)-3,5-dimethylpiperazin-1-yl)methyl)-N-hydroxybenzamide] | 9.6 | 93 | 0.103
2 | CC(CN(C)Cc1ccccc1)NCc1cccc(CN2[C@H](C)CN(Cc3ccc(C(=O)NO)cc3)C[C@@H]2C)c1 (stereo partly drawn) [Compound 456, 4-(((3R,5S)-4-(3-(((1-(benzyl(methyl)amino)propan-2-yl)amino)methyl)benzyl)-3,5-dimethylpiperazin-1-yl)methyl)-N-hydroxybenzamide] | 11.1 | 77 | 0.144
3 | C[C@@H]1CN(Cc2ccc(C(=O)NO)cc2)C[C@H](C)N1C(=O)c1ccc(CN2CCOCC2)cc1 [Compound 458, 4-(((3R,5S)-3,5-dimethyl-4-(4-(morpholinomethyl)benzoyl)piperazin-1-yl)methyl)-N-hydroxybenzamide] | 6.1 | 21 | 0.286
4 | C[C@@H]1CN(Cc2ccc(C(=O)NO)cc2)C[C@H](C)N1C(=O)c1ccc(CN2CC[C@@H](F)C2)cc1 [Compound 460, 4-(((3R,5S)-4-(4-(((R)-3-fluoropyrrolidin-1-yl)methyl)benzoyl)-3,5-dimethylpiperazin-1-yl)methyl)-N-hydroxybenzamide] | 4.4 | 20 | 0.219
5 | C[C@@H]1CN(Cc2ccc(C(=O)NO)cc2)C[C@H](C)N1C(=O)c1ccc(CN2CCN(S(C)(=O)=O)CC2)cc1 [Compound 463, 4-(((3R,5S)-3,5-dimethyl-4-(4-((4-(methylsulfonyl)piperazin-1-yl)methyl)benzoyl)piperazin-1-yl)methyl)-N-hydroxybenzamide] | 4.7 | 18 | 0.256
6 | C[C@@H]1CN(Cc2ccc(C(=O)NO)cc2)C[C@H](C)N1Cc1ccc(CN2CCCCC2)cc1 [Compound 467, 4-(((3R,5S)-3,5-dimethyl-4-(4-(piperidin-1-ylmethyl)benzyl)piperazin-1-yl)methyl)-N-hydroxybenzamide] | > 10 | >204 | 0.049
7 | C[C@@H]1CN(Cc2ccc(C(=O)NO)cc2)C[C@H](C)N1Cc1ccc(CN2CCN(C)CC2)cc1 [Compound 468, 4-(((3R,5S)-3,5-dimethyl-4-(4-((4-methylpiperazin-1-yl)methyl)benzyl)piperazin-1-yl)methyl)-N-hydroxybenzamide] | 20 | 690 | 0.029
8 | CCN(CC)Cc1cccc(CN2C[C@@H](C)N(Cc3ccc(C(=O)NO)cc3)[C@@H](C)C2)c1 [Compound 478, 4-(((2S,6R)-4-(3-((diethylamino)methyl)benzyl)-2,6-dimethylpiperazin-1-yl)methyl)-N-hydroxybenzamide] | 6.57 | 10 | 0.64
9 | C[C@@H]1CN(Cc2cccc(CN3CCCC3)c2)C[C@H](C)N1Cc1ccc(C(=O)NO)cc1 [Compound 479, 4-(((2S,6R)-2,6-dimethyl-4-(3-(pyrrolidin-1-ylmethyl)benzyl)piperazin-1-yl)methyl)-N-hydroxybenzamide] | 5.3 | 12 | 0.433
10 | C[C@@H]1CN(Cc2ccc(C(=O)NO)cc2)C[C@H](C)N1Cc1ccccc1C1=CCN(S(C)(=O)=O)CC1 [Compound 481, 4-(((3R,5S)-3,5-dimethyl-4-(2-(1-(methylsulfonyl)-1,2,3,6-tetrahydropyridin-4-yl)benzyl)piperazin-1-yl)methyl)-N-hydroxybenzamide] | 16.2 | 153 | 0.106
11 | CC(=O)N1CC=C(c2ccccc2CN2[C@H](C)CN(Cc3ccc(C(=O)NO)cc3)C[C@@H]2C)CC1 [Compound 482, 4-(((3R,5S)-4-(2-(1-acetyl-1,2,3,6-tetrahydropyridin-4-yl)benzyl)-3,5-dimethylpiperazin-1-yl)methyl)-N-hydroxybenzamide] | 12.5 | 121 | 0.103

Now those with a lower IC50 (human recombinant HDAC1), led by results:

Row | IC50 (human recombinant HDAC1) [µM] | HDAC6 selectivity (fold) (human recombinant HDAC6) | IC50 (human recombinant HDAC6) [µM] | Compound
12 | 4.2 | 18 | 0.238 | C[C@@H]1CN(Cc2ccc(C(=O)NO)cc2)C[C@H](C)N1C(=O)c1ccc(CN2CCCC2)cc1 [Compound 461, 4-(((3R,5S)-3,5-dimethyl-4-(4-(pyrrolidin-1-ylmethyl)benzoyl)piperazin-1-yl)methyl)-N-hydroxybenzamide]
13 | 3.8 | 25 | 0.149 | C[C@@H]1CN(Cc2ccc(C(=O)NO)cc2)C[C@H](C)N1C(=O)c1ccc(CN2CCCCC2)cc1 [Compound 459, 4-(((3R,5S)-3,5-dimethyl-4-(4-(piperidin-1-ylmethyl)benzoyl)piperazin-1-yl)methyl)-N-hydroxybenzamide]
14 | 3.2 | 12 | 0.264 | C[C@@H]1CN(Cc2ccc(C(=O)NO)cc2)C[C@H](C)N1C(=O)c1ccc(CN2CCN(C)CC2)cc1 [Compound 462, 4-(((3R,5S)-3,5-dimethyl-4-(4-((4-methylpiperazin-1-yl)methyl)benzoyl)piperazin-1-yl)methyl)-N-hydroxybenzamide]
15 | 2.7 | 11 | 0.253 | C[C@@H]1CN(Cc2ccc(-c3ccco3)cc2)C[C@H](C)N1Cc1ccc(/C=C/C(=O)NO)cc1 [Compound 477, (E)-3-(4-(((2S,6R)-4-(4-(furan-2-yl)benzyl)-2,6-dimethylpiperazin-1-yl)methyl)phenyl)-N-hydroxyacrylamide]
16 | 1 | 2 | 0.467 | C[C@@H]1CN(C(=O)c2cccc(CN3CCCC3)c2)C[C@H](C)N1Cc1ccc(/C=C/C(=O)NO)cc1 [Compound 480, (E)-3-(4-(((2S,6R)-2,6-dimethyl-4-(3-(pyrrolidin-1-ylmethyl)benzoyl)piperazin-1-yl)methyl)phenyl)-N-hydroxyacrylamide]
17 | 0.9 | 6 | 0.142 | CCN(CC)Cc1cccc(CN2C[C@@H](C)N(Cc3ccc(/C=C/C(=O)NO)cc3)[C@@H](C)C2)c1 [Compound 476, (E)-3-(4-(((2S,6R)-4-(3-((diethylamino)methyl)benzyl)-2,6-dimethylpiperazin-1-yl)methyl)phenyl)-N-hydroxyacrylamide]
18 | 0.8 | 7 | 0.114 | C[C@@H]1CN(Cc2cccc(CN3CCCC3)c2)C[C@H](C)N1Cc1ccc(/C=C/C(=O)NO)cc1 [Compound 475, (E)-3-(4-(((2S,6R)-2,6-dimethyl-4-(3-(pyrrolidin-1-ylmethyl)benzyl)piperazin-1-yl)methyl)phenyl)-N-hydroxyacrylamide]
19 | 0.7 | 35 | 0.019 | C[C@@H]1CN(Cc2ccc(C(=O)NO)cc2)C[C@H](C)N1Cc1ccc(CN2CCCC2)cc1 [Compound 466, 4-(((3R,5S)-3,5-dimethyl-4-(4-(pyrrolidin-1-ylmethyl)benzyl)piperazin-1-yl)methyl)-N-hydroxybenzamide]
20 | 0.3 | 2 | 0.146 | C[C@@H]1CN(Cc2ccc(C(=O)NO)cc2)C[C@H](C)N1Cc1ccccc1CN1CCOCC1 [Compound 457, 4-(((3R,5S)-3,5-dimethyl-4-(2-(morpholinomethyl)benzyl)piperazin-1-yl)methyl)-N-hydroxybenzamide]
21 | 0.2 | 3 | 0.055 | C[C@@H]1CN(Cc2ccc(/C=C/C(=O)NO)cc2)C[C@H](C)N1Cc1cccc(CN2CCOCC2)c1 [Compound 472, (E)-3-(4-(((3R,5S)-3,5-dimethyl-4-(3-(morpholinomethyl)benzyl)piperazin-1-yl)methyl)phenyl)-N-hydroxyacrylamide]

Reference: patent US10287255B2, “Compounds as histone deacetylase 6 inhibitors and pharmaceutical compositions comprising the same” (CHONG KUN DANG PHARMACEUTICAL CORP., priority 2014, dated 2019)
